# According to patent US9346811B2, “6,7-dihydro-pyrazolo[1,5-a]pyrazin-4-ylamine derivatives useful as inhibitors of beta-secretase (BACE)” (JANSSEN PHARMACEUTICA NV, priority 2011, dated 2016):
# Legend:
# [1] = tested on: brain levels of soluble Aβ42; test: In vivo efficacy: brain Aβ42 lowering (ELISA); set-up: species or system mouse
# Excerpt: (§1) To determine whether acute administration of an Aβ42 peptide lowering agent would reduce Aβ peptide levels in vivo, non-transgenic rodents, e.g. mice or rats were used. Animals treated with the Aβ peptide lowering agent were examined and compared to those untreated or treated with vehicle and brain levels of soluble Aβ42 and total Aβ were quantitated by standard techniques, for example, using ELISA. Treatment periods varied from hours (h) to days and were adjusted based on the results of the Aβ42 lowering once a time course of onset of effect could be established.
# (§2) A typical protocol for measuring Aβ42 lowering in vivo is shown but it is only one of many variations that could be used to optimize the levels of detectable Aβ. For example, Aβ peptide lowering compounds were formulated in 20% hydroxypropyl β cyclodextrin. The Aβ peptide lowering agents were administered as a single oral dose (p.o.) or a single subcutaneous dose (s.c.) to overnight fasted animals. After a certain time, usually 2 or 4 h (as indicated in Table 7), the animals were sacrificed and Aβ42 levels were analysed.
# (§3) Blood was collected by decapitation and exsanguinations in EDTA-treated collection tubes. Blood was centrifuged at 1900 g for 10 minutes (min) at 4° C. and the plasma recovered and flash frozen for later analysis. The brain was removed from the cranium and hindbrain. The cerebellum was removed and the left and right hemisphere were separated. The left hemisphere was stored at −18° C. for quantitative analysis of test compound levels. The right hemisphere was rinsed with phosphate-buffered saline (PBS) buffer and immediately frozen on dry ice and stored at −80° C. until homogenization for biochemical assays.
# (§4) Mouse brains from non-transgenic animals were resuspended in 8 volumes of 0.4% DEA (diethylamine)/50 mM NaCl containing protease inhibitors (Roche-11873580001 or 04693159001) per gram of tissue, e.g. for 0.158 g brain, add 1.264 ml of 0.4% DEA. All samples were homogenized in the FastPrep-24 system (MP Biomedicals) using lysing matrix D (MPBio #6913-100) at 6 m/s for 20 seconds. Homogenates were centrifuged at 221.300×g for 50 min. The resulting high speed supernatants were then transferred to fresh eppendorf tubes. Nine parts of supernatant were neutralized with 1 part 0.5 M Tris-HCl pH 6.8 and used to quantify Aβtotal and Aβ42.
# (§5) To quantify the amount of Aβtotal and Aβ42 in the soluble fraction of the brain homogenates, Enzyme-Linked-Immunosorbent-Assays were used. Briefly, the standards (a dilution of synthetic Aβ1-40 and […], Bachem) were prepared in 1.5 ml Eppendorf tube in Ultraculture, with final concentrations ranging from 10000 to 0.3 pg/ml. The samples and standards were co-incubated with HRPO-labelled N-terminal antibody for Aβ42 detection and with the biotinylated mid-domain antibody 4G8 for Aβtotal detection. 50 μl of conjugate/sample or conjugate/standards mixtures were then added to the antibody-coated plate (the capture antibodies selectively recognize the C-terminal end of Aβ42, antibody JRF/cAβ42/26, for Aβ42 detection and the N-terminus of Aβ, antibody JRF/rAβ/2, for Aβtotal detection). The plate was allowed to incubate overnight at 4° C. in order to allow formation of the antibody-amyloid complex. Following this incubation and subsequent wash steps the ELISA for Aβ42 quantification was finished by addition of Quanta Blu fluorogenic peroxidase substrate according to the manufacturer's instructions (Pierce Corp., Rockford, Il.). A reading was performed after 10 to 15 min (excitation 320 nm/emission 420 nm).
# In this model at least 20% Aβ42 lowering compared to untreated animals would be advantageous.
# [2] = target: recombinant BACE1 protein (Homo sapiens, UniProt P56817); test: Biochemical FRET based assay; settings: recombinant BACE1 1 μg/ml, 120 min, pH 5.0; for IC50: read-out: Biochemical FRET based assay pIC50 (converted)
# Excerpt: Biochemical FRET Based Assay
# This assay is a Fluorescence Resonance Energy Transfer Assay (FRET) based assay. The substrate for this assay is an APP derived 13 amino acids peptide that contains the ‘Swedish’ Lys-Met/Asn-Leu mutation of the amyloid precursor protein (APP) β-secretase cleavage site. This substrate also contains two fluorophores: (7-methoxycoumarin-4-yl)acetic acid (Mca) is a fluorescent donor with excitation wavelength at 320 nm and emission at 405 nm and 2,4-Dinitrophenyl (Dnp) is a proprietary quencher acceptor. […] Upon cleavage by BACE1, the fluorophore Mca is separated from the quenching group Dnp, restoring the full fluorescence yield of the donor. The increase in fluorescence is linearly related to the rate of proteolysis (Koike H et al. J. Biochem. 1999, 126, 235-242). Briefly in a 384-well format recombinant BACE1 protein in a final concentration of 1 μg/ml is incubated for 120 min at room temperature with 10 μm substrate in incubation buffer (40 mM Citrate buffer pH 5.0, 0.04% PEG, 4% DMSO) in the absence or presence of compound. Next the amount of proteolysis is directly measured by fluorescence measurement at T=0 and T=120 (excitation at 320 nm and emission at 405 nm).
# brain levels of total Aβ = test: In vivo efficacy: brain Aβtotal lowering (ELISA); set-up: species or system mouse
# Excerpt: as §1, §2, §3, §4, §5
# For Aβtotal detection, a Streptavidine-Peroxidase-Conjugate was added, followed 60 min later by an additional wash step and addition of Quanta Blu fluorogenic peroxidase substrate according to the manufacturer's instructions (Pierce Corp., Rockford, Il.). A reading was performed after 10 to 15 min (excitation 320 nm/emission 420 nm).
# [3] = tested on: Aβ42 produced and secreted into the medium of human neuroblastoma SKNBE2 cells; test: Cellular αlisa assay in SKNBE2 cells, Aβ42; type: cell-based; settings: SKNBE2 cells expressing hAPP695, 18 hours incubation; for IC50: Homo sapiens, SKNBE2, 18 h, read-out: Cellular αlisa assay in SKNBE2 cells Aβ42 pIC50 (converted)
# Method: (§6) Cellular αlisa Assay in SKNBE2 Cells
# (§7) In two αlisa assays the levels of Aβtotal and Aβ42 produced and secreted into the medium of human neuroblastoma SKNBE2 cells are quantified. The assay is based on the human neuroblastoma SKNBE2 expressing the wild type Amyloid Precursor Protein (hAPP695). The compounds are diluted and added to these cells, incubated for 18 hours and then measurements of Aβ42 and Aβtotal are taken. Aβtotal and Aβ42 are measured by sandwich αlisa. αlisa is a sandwich assay using biotinylated antibody AbN/25 attached to streptavidin coated beads and antibody Ab4G8 or cAb42/26 conjugated acceptor beads for the detection of Aβtotal and Aβ42 respectively. In the presence of Aβtotal or Aβ42, the beads come into close proximity. The excitation of the Donor beads provokes the release of singlet oxygen molecules that triggers a cascade of energy transfer in the Acceptor beads, resulting in light emission. Light emission is measured after 1 hour incubation (excitation at […] and emission at 615 nm).
# (§8) A best-fit curve is fitted by a minimum sum of squares method to the plot of % Controlmin versus compound concentration.
# [4] = tested on: Aβtotal produced and secreted into the medium of human neuroblastoma SKNBE2 cells; test: Cellular αlisa assay in SKNBE2 cells, Aβtotal; type: cell-based; settings: SKNBE2 cells expressing hAPP695, 18 hours incubation; for IC50: Homo sapiens, SKNBE2, 18 h, read-out: Cellular αlisa assay in SKNBE2 cells Aβtotal pIC50 (converted)
# Method: as §6, §7, §8
# [5] = 30 mg/kg p.o., 2 h after administration
# [6] = 10 mg/kg p.o., 4 h. after administration
# [7] = 5 mg/kg p.o., 4 h. after administration
# [8] = 30 mg/kg p.o., 4 h. after administration
# [9] = 100 mg/kg s.c., 4 h. after administration
# Chain of recombinant BACE1 protein (P56817 46-501): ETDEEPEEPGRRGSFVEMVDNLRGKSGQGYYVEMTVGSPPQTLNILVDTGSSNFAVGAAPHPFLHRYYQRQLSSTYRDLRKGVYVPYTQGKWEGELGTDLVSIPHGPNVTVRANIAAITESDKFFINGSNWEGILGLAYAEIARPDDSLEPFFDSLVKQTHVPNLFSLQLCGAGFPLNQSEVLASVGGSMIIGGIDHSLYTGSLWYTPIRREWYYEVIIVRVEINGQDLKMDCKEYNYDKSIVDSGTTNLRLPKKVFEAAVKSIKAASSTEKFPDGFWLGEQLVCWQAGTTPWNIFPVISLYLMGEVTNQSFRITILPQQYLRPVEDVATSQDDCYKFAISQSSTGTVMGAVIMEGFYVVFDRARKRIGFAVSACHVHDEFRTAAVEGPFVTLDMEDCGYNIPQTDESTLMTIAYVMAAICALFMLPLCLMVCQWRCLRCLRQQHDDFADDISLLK
IC50 [2] [nM],IC50 [3] [nM],IC50 [4] [nM],Compound,"Aβ42 (% Ctrl)_Mean [1, 6] [% Ctrl]",Aβtotal (% Ctrl)_Mean (brain levels of total Aβ; [6]) [% Ctrl],other results
39.8,1.78,1.95,"COc1cnc(C(=O)Nc2ccc(F)c([C@]3(C)Cn4nc(C#N)cc4C(N)=N3)c2)cn1 [Compound 23, (R)-5-methoxy-pyrazine-2-carboxylic acid [3-(4-amino-2-cyano-6-methyl-6,7-dihydro-pyrazolo[1,5-a]pyrazin-6-yl)-4-fluoro-phenyl]-amide]",45,39,–
69.2,5.25,6.31,"COc1cnc(C(=O)Nc2ccc(F)c([C@]3(C)Cn4nc(C(F)F)cc4C(N)=N3)c2)cn1 [Compound 28, (R)-5-methoxy-pyrazine-2-carboxylic acid [3-(4-amino-2-difluoromethyl-6-methyl-6,7-dihydro-pyrazolo[1,5-a]pyrazin-6-yl)-4-fluoro-phenyl]-amide]",39,50,–
81.3,16.2,17,"COc1cnc(C(=O)Nc2ccc(F)c([C@]3(C)Cn4nc(C)c(F)c4C(N)=N3)c2)cn1 [Compound 29, (R)-5-methoxy-pyrazine-2-carboxylic acid [3-(4-amino-3-fluoro-2,6-dimethyl-6,7-dihydro-pyrazolo[1,5-a]pyrazin-6-yl)-4-fluoro-phenyl]-amide]",59,58,–

# Second part, the molecule before the results:
Compound,IC50 [2] [nM],IC50 [3] [nM],IC50 [4] [nM],"Aβ42 (% Ctrl)_Mean [1, 6] [% Ctrl]",Aβtotal (% Ctrl)_Mean (brain levels of total Aβ; [6]) [% Ctrl],other results
"COc1cnc(C(=O)Nc2cccc(C3(C)Cn4nc(C(F)(F)F)cc4C(N)=N3)c2)cn1 (single isomer, unassigned) [Compound 32]",–,–,–,–,–,"Aβ42 (% Ctrl)_Mean [1, 5]: 53 % Ctrl; Biochemical FRET based assay pIC50 [2]: 7.20; Aβtotal (% Ctrl)_Mean (brain levels of total Aβ; [5]): 58 % Ctrl; Cellular αlisa assay in SKNBE2 cells Aβ42 pIC50 [3]: 7.76; Cellular αlisa assay in SKNBE2 cells Aβtotal pIC50 [4]: 7.84"
"C[C@@]1(c2cc(NC(=O)c3ccc(F)cn3)ccc2F)Cn2nc(C#N)cc2C(N)=N1 [Compound 24, (R)-5-fluoro-pyridine-2-carboxylic acid [3-(4-amino-2-cyano-6-methyl-6,7-dihydro-pyrazolo[1,5-a]pyrazin-6-yl)-4-fluoro-phenyl]-amide]",32.4,3.31,3.89,–,–,"Aβ42 (% Ctrl)_Mean [1, 7]: 66 % Ctrl; Aβ42 (% Ctrl)_Mean [1, 8]: 16 % Ctrl; Aβtotal (% Ctrl)_Mean (brain levels of total Aβ; [7]): 59 % Ctrl; Aβtotal (% Ctrl)_Mean (brain levels of total Aβ; [8]): 31 % Ctrl"
"C[C@@]1(c2cc(NC(=O)c3ccc(F)cn3)ccc2F)Cn2nc(C(F)F)cc2C(N)=N1 [Compound 27, (R)-5-fluoro-pyridine-2-carboxylic acid [3-(4-amino-2-difluoromethyl-6-methyl-6,7-dihydro-pyrazolo[1,5-a]pyrazin-6-yl)-4-fluoro-phenyl]-amide]",60.3,7.08,6.76,55,61,–
CC1(c2cc(NC(=O)c3ccc(F)cn3)ccc2F)Cn2ncc(F)c2C(N)=N1 (stereo not shown) [Compound 33],–,–,–,–,–,"Aβ42 (% Ctrl)_Mean [1, 9]: 49 % Ctrl; Biochemical FRET based assay pIC50 [2]: 7.19; Aβtotal (% Ctrl)_Mean (brain levels of total Aβ; [9]): 20 % Ctrl; Cellular αlisa assay in SKNBE2 cells Aβ42 pIC50 [3]: 8.09; Cellular αlisa assay in SKNBE2 cells Aβtotal pIC50 [4]: 8.14"
